We go through 3 compounds from US9596857B2, “Insecticidal and miticidal mixtures of bifenthrin and cyano-pyrethroids” (FMC Corporation, priority 2005, dated 2017).

Several values for one entry are separate records, joined by “and”; a condition that tells them apart may be missing. Identical values can stand only once.

Holding throughout (format): in vivo
Data set [1] relates to twospotted spider mite (Tetranychus urticae [Koch]). Description: Foliar leaf-dip test against twospotted spider mite on pinto bean plants. As to conditions: technical, 96 h. The procedure: (§1) Candidate insecticide compositions were evaluated for activity in foliar evaluations against tobacco budworm (Heliothis virescens [Fabricius]), Colorado potato beetle (Leptinotarsa decemlineata [Say]), corn earworm (Helicoverpa zea [Boddie]), cotton aphid (Aphis gossypii [Glover]) and twospotted spider mite (Tetranychus urticae [Koch]). Each test included controls in which the formulation or test solution minus the active ingredients were applied.
In tests against twospotted spider mites, the leaves of potted 3 to 4 inch tall pinto bean plants (Phaseolus vulgaris) were infested with about 50 to 75 adult twospotted spider mites by placing leaf cuttings from a twospotted spider mite colony host pinto bean plant on the upper surface of the test plant leaves. After about 1 hour the newly infested pinto bean leaves were dipped into the test solutions of the test formulations to provide application rates as high as 1000 ppm of the active ingredients. The test formulations were dissolved in, and diluted as necessary, with distilled water containing 10% acetone and 0.25% of a non-ionic detergent [an octylphenolpoly(ethyleneglycolether)x, available from Roche Applied Science as Triton X-100] to the proper concentrations. The treated plants were transferred to a hood where they were kept until the leaves had dried. Once dry, the potted plants were placed into a tray containing at least one inch of water. The plants were spaced far enough apart to prevent the mites from moving between plants. The trays were held in a growth chamber for 96 hours at 25° C., 50% relative humidity and a photoperiod of 14 hours light/10 hours dark. For tests in which the active ingredients were not formulated, i.e. the technical active ingredient was used; a stock solution of the test compound was made. For example, a 100 ppm stock solution may be made by dissolving 4 milligrams of the test compound in 4 mL of acetone and adding the solution to 36 mL of an aqueous Triton X-100 solution (one drop of Triton X-100 dissolved in 100 mL of distilled water). Further dilutions can be made by adding distilled water containing 10% acetone and 0.25% of Triton X-100.
At the end of the 96 hour exposure period the numbers of dead and live insects were counted. […] Using the insect counts, the activity of the test chemical was expressed in percent control. Percent control is derived from the total number of dead insects (TD) compared to the total number of insects (TI) in the test: […]

For data set [2], the system named is cotton aphid (Aphis gossypii [Glover]). As to the kind of experiment: Foliar leaf-dip test against cotton aphid on tomato plants. As to conditions: technical, 72 h. The procedure:
as §1
In tests against cotton aphid, the leaves of 6 to 8 inch tall tomato plants (Lycopersicon lycoper) were infested with about 50 cotton aphids by placing leaf cuttings from a cotton aphid colony host tomato plant. After about 12 hours the newly infested tomato leaves were dipped into the test solutions of the test formulations to provide application rates as high as 1000 ppm of the active ingredients. The test formulations were dissolved in, and diluted as necessary, with distilled water containing 10% acetone and 0.25% of a non-ionic detergent [an octylphenolpoly(ethyleneglycolether)x, available from Roche Applied Science as Triton X-1001 to the proper concentrations. After treatment, a square of parafilm was placed around the stem of each test plant, covering the soil of each pot in order to catch dead aphids that fall from the leaves. The treated plants were transferred to a hood where they were kept until the leaves had dried. Once dry, the potted plants were placed into a tray containing at least one inch of water. The plants were spaced far enough apart to prevent the aphids from moving between plants. The trays were held in a growth chamber for 72 hours at 25° C., 50% relative humidity and a photoperiod of 14 hours light/10 hours dark. For tests in which the active ingredients were not formulated, i.e. the technical active ingredient was used; a stock solution of the test compound was made. For example, a 100 ppm stock solution may be made by dissolving 4 milligrams of the test compound in 4 mL of acetone and adding the solution to 36 mL of an aqueous Triton X-100 solution (one drop of Triton X-100 dissolved in 100 mL of distilled water). Further dilutions can be made by adding distilled water containing 10% acetone and 0.25% of Triton X-100.
At the end of the 72 hour exposure period the numbers of dead and live insects were counted. Insects were classified as “dead” if they were off-color or brown and desiccated. Using the insect counts, the activity of the test chemical was expressed in percent control. Percent control is derived from the total number of dead insects (TD) compared to the total number of insects (TI) in the test: […]

Data set [3] deals with Colorado potato beetle (Leptinotarsa decemlineata [Say]). Description: Foliar leaf-dip test against adult Colorado potato beetle on tomato plants. Conditions: technical, 72 h. The procedure: as §1
In tests against adult Colorado potato beetle, the leaves of 6-8 inch tall tomato plants (Lycopersicon lycoper) were dipped into the test solutions of the test formulations to provide application rates as high as 1000 ppm of the active ingredients. The test formulations were dissolved in distilled water containing 10% acetone and 0.25% of a non-ionic detergent [an octylphenolpoly(ethyleneglycolether)x, available from Roche Applied Science as Triton X-100] to the proper concentrations. The treated plants were transferred to a hood where they were kept until the leaves had dried. For tests in which the active ingredients were not formulated, i.e. the technical active ingredient was used; a stock solution of the test compound was made. For example, a 100 ppm stock solution may be made by dissolving 4 milligrams of the test compound in 4 mL of acetone and adding the solution to 36 mL of an aqueous Triton X-100 solution (one drop of Triton X-100 dissolved in 100 mL of distilled water). Further dilutions can be made by adding distilled water containing 10% acetone and 0.25% of Triton X-100.
The treated tomato plants were removed from their pots by cutting the stems just above the soil line. Each excised plant was placed into an individual 8-ounce paper cup. Ten adult Colorado potato beetles were placed into each paper cup, taking care not to cause injury. An opaque plastic lid was placed on each cup, for a 72 hour exposure period and held at 25° C., 50% relative humidity with a photo-period of 12 hours light and 12 hours dark. At the end of the 72 hour exposure period, the cups were opened, and the numbers of dead and live insects were counted. Using the insect counts, the activity of the test chemical was expressed in percent control. Percent control is derived from the total number of dead insects (TD) compared to the total number of insects (TI) in the test: […]

The subject of data set [4] is corn earworm (Helicoverpa zea [Boddie]). Description: Cotton leaf-disc dip test against corn earworm. Conditions: technical, 96 h. The procedure: as §1
In tests against corn earworm, one inch diameter leaf discs cut from cotton plant leaves (Gossypium hirsutum) were dipped into the test solutions of the test formulations to provide application rates as high as 1000 ppm of the active ingredients. The test formulations were dissolved in distilled water containing 10% acetone and 0.25% of a non-ionic detergent [an octylphenolpoly(ethyleneglycolether)x, available from Roche Applied Science as Triton X-100] to the proper concentrations. Cotton wicks, 0.5 inch diameter by 2 inches long, were soaked with distilled water and placed into the wells of a 32 well rearing tray (available as Rearing Tray Bio-Fit 32, from C-D International, Pittman, N.J.), one wick per well. Treated leaf discs were placed on top of the cotton wicks, one leaf disc per wick, and the rearing tray was transferred to a hood where they were kept until the leaf discs had dried. Each disc was infested with 1 late second to early third instar corn earworm, replicated sixteen times per rate of application, and a lid was placed on the rearing tray. The rearing trays were held in a growth chamber for 96 hours at 25° C., 50% relative humidity and a photoperiod of 12 hours light/12 hours dark. For tests in which the active ingredients were not formulated, i.e. the technical active ingredient was used; a stock solution of the test compound was made. For example, a 100 ppm stock solution may be made by dissolving 4 milligrams of the test compound in 4 mL of acetone and adding the solution to 36 mL of an aqueous Triton X-100 solution (one drop of Triton X-100 dissolved in 100 mL of distilled water). Further dilutions can be made by adding distilled water containing 10% acetone and 0.25% of Triton X-100.
At the end of the 96 hour exposure period, the rearing tray was opened, and the numbers of dead and live insects were counted. […] Using the insect counts, the activity of the test chemical was expressed in percent control. Percent control is derived from the total number of dead insects (TD) compared to the total number of insects (TI) in the test: […]

Where [5] appears, read: cyano-pyrethroid 10.0 ppm alone (bifenthrin 0 ppm).
[6] abbreviates: cyano-pyrethroid 30.0 ppm alone (bifenthrin 0 ppm).
[7] abbreviates: cyano-pyrethroid 100.0 ppm alone (bifenthrin 0 ppm).
Where [8] appears, read: cyano-pyrethroid 200.0 ppm alone (bifenthrin 0 ppm).
[9] abbreviates: cyano-pyrethroid 0.3 ppm alone (bifenthrin 0 ppm).
Setting [10] is: cyano-pyrethroid 1.0 ppm alone (bifenthrin 0 ppm).
The mark [11] stands for this setting: cyano-pyrethroid 3.0 ppm alone (bifenthrin 0 ppm).
[12] abbreviates: cyano-pyrethroid 0.3 ppm alone (bifenthrin 0.0 ppm).
Where [13] appears, read: cyano-pyrethroid 1.0 ppm alone (bifenthrin 0.0 ppm).
The mark [14] stands for this setting: cyano-pyrethroid 3.0 ppm alone (bifenthrin 0.0 ppm).
The mark [15] stands for this setting: cyano-pyrethroid 10.0 ppm alone (bifenthrin 0.0 ppm).
Where [16] appears, read: bifenthrin 1.0 ppm alone (cyano-pyrethroid 0 ppm).

As for `CC1(C)C(C=C(Cl)Cl)C1C(=O)OC(C#N)c1cccc(Oc2ccccc2)c1` (racemic) [alpha-cypermethrin, (S)-α-cyano-3-phenoxybenzyl (1R)-cis-3-(2,2-dichlorovinyl)-2,2-dimethylcyclopropanecarboxylate and (R)-α-cyano-3-phenoxybenzyl (1S)-cis-3-(2,2-dichlorovinyl)-2,2-dimethylcyclopropanecarboxylate], the “% Mortality Twospotted Spider Mite” value in data set [1] (setting [5]) was found to be 8%; in data set [1] (setting [6]) it was 8%; in data set [1] (setting [7]) it was 16%; in data set [1] (setting [8]), 32%. For the same compound, the “% Mortality Cotton Aphid” value in data set [2] (setting [6]) is on record as 7%; in data set [2] (setting [7]), 3%; in data set [2] (setting [8]) it was 7%. The “% Mortality Adult Colorado Potato Beetle” value in data set [3] (setting [9]) stood at 30%; in data set [3] (setting [10]), 70%; in data set [3] (setting [11]), 100%; in data set [3] (setting [5]), 100%. Moreover, the “% Mortality Corn Earworm” value was 6% in data set [4] (setting [12]), 63% in data set [4] (setting [13]), 100% in data set [4] (setting [14]) and 100% in data set [4] (setting [15]).

Consider `Cc1c(COC(=O)[C@@H]2[C@H](/C=C(\Cl)C(F)(F)F)C2(C)C)cccc1-c1ccccc1` (racemic) [bifenthrin, 2-methylbiphenyl-3-ylmethyl (Z)-(1RS)-cis-3-(2-chloro-3,3,3-trifluoroprop-1-enyl)-2,2-dimethyl cyclopropanecarboxylate], for which, in data set [1] (Tetranychus urticae, foliar, bifenthrin 60.0 ppm alone (cyano-pyrethroid 0 ppm)), the mortality at 60 ppm was determined as 68%. In addition, the “% Mortality Twospotted Spider Mite” value was 66% and 100% and 69% in data set [1] (bifenthrin 30.0 ppm alone (cyano-pyrethroid 0 ppm)); 75% and 90% and 100% in data set [1] (bifenthrin 100.0 ppm alone (cyano-pyrethroid 0 ppm)). In addition, the mortality at 200 ppm in data set [2] (Aphis gossypii, foliar, bifenthrin 200.0 ppm alone (cyano-pyrethroid 0 ppm)) is 100%. The mortality at 0.3 ppm stood at 0% in data set [3] (Leptinotarsa decemlineata, foliar, bifenthrin 0.3 ppm alone (cyano-pyrethroid 0 ppm)) and 13% in data set [4] (Helicoverpa zea, bifenthrin 0.3 ppm alone (cyano-pyrethroid 0 ppm)). Also, the “% Mortality Adult Colorado Potato Beetle” value in data set [3] (setting [16]) stood at 10%. This compound also returned a mortality at 0.1 ppm in data set [4] (Helicoverpa zea, bifenthrin 0.1 ppm alone (cyano-pyrethroid 0 ppm)) of 6%. Moreover, the “% Mortality Corn Earworm” value in data set [4] (bifenthrin 0.3 ppm alone (cyano-pyrethroid 0 ppm)) is 25%; in data set [4] (setting [16]), 100% and 75% and 63%.

As for `CC1(C)C(C=C(Cl)Cl)C1C(=O)OC(C#N)c1ccc(F)c(Oc2ccccc2)c1` (racemic) [cyfluthrin, (RS)-α-cyano-4-fluoro-3-phenoxybenzyl (1RS)-cis-trans-3-(2,2-dichlorovinyl)-2,2-dimethylcyclopropanecarboxylate], the “% Mortality Twospotted Spider Mite” value is reported as 14% in data set [1] (setting [5]), 17% in data set [1] (setting [6]), 23% in data set [1] (cyano-pyrethroid 60.0 ppm alone (bifenthrin 0 ppm)) and 11% in data set [1] (setting [7]). The “% Mortality Cotton Aphid” value in data set [2] (setting [5]) is on record as 4%; in data set [2] (setting [6]), 6%; in data set [2] (setting [7]), 9%. Also, the “% Mortality Adult Colorado Potato Beetle” value is on record as 10% in data set [3] (setting [9]), 70% in data set [3] (setting [10]), 80% in data set [3] (setting [11]) and 100% in data set [3] (setting [5]). In addition, the “% Mortality Corn Earworm” value in data set [4] (setting [12]) is reported as 13%; in data set [4] (setting [13]) it was 69%; in data set [4] (setting [14]), 100%; in data set [4] (setting [15]) it was 100%.
